The term Ki denotes a dissociation constant, usually derived from enzyme kinetics or from competition with a known ligand.

Experimental findings from ChEMBL document CHEMBL1133357, “Inhibition of neuraminidase with neuraminic acid C-glycosides” (Bioorg Med Chem Lett, 2000) are described below.

The test in a line: The compound was tested for its inhibitory activity against bacterial neuraminidase. Set-up: species or system Clostridium perfringens.

Take `CC(=O)NC1C(O)CC(C(=O)O)([C@@H](O)C2C(O)C(CO)OC(OC(=O)c3ccccc3)C2O)OC1C(O)C(O)CO` (stereo not given in full): the Ki is 110 µM. In the case of `CCCCCCCC(O)[C@]1(C(=O)O)C[C@@H](O)[C@@H](NC(C)=O)C(C(O)C(O)CO)O1` (stereo not given in full), the Ki was determined as 16 µM. Compared with the last compound, the Ki is about 6.9-fold lower. For `CC(=O)NC1C(O)CC(C(=O)O)([C@H](O)C2C(O)C(CO)OC(OC(=O)c3ccccc3)C2O)OC1C(O)C(O)CO` (stereo not given in full) the value was 229 µM. For `COC1OC(CO)C(O)C([C@@H](O)C2(C(=O)O)CC(O)C(NC(C)=O)C(C(O)C(O)CO)O2)C1O` (stereo not given in full) the value was > 1000 µM; for `CC(=O)N[C@H]1C(C(O)C(O)CO)O[C@](C(=O)O)(C(C)(C)O)C[C@H]1O` (stereo not given in full), 29 µM.
